Reference: patent publication US9210928B2, “Plant development control composition” (Syngenta Crop Protection, LLC, priority 2008, dated 2015)
“Also recorded” adds a separate entry of the source.

Assays:
LeNCED1 = biological target: T1, LeNCED1 (Solanum lycopersicum, UniProt O24023); assay: In vitro NCED enzyme assay (recombinant LeNCED1 cell-free extract, HPLC, 9′-cis-neoxanthin substrate); format: biochemical, tomato
T1 construct: made in house; host or cells: E. coli Rosetta (DE3); crude cell-free extract
Description: In vitro NCED enzyme assay—We over-expressed LeNCED1 in E. coli, as an N-terminal His6-fusion protein (supplemental methods). Cell-free extract containing recombinant LeNCED1 was prepared in 100 mM bis-tris buffer (pH 6.7). 15 μl extract was pre-activated by addition of iron(II) sulphate (20 mM, 1 μl) and ascorbic acid (20 mM, 1 μl) on ice for 2 min, prior to use. This aliquot of enzyme was then added to an assay (150 μl total volume) containing 100 mM bis-tris buffer (pH 6.7), 0.05% v/v Triton X-100, 1.0 mg/ml catalase, and 3 μg 9′-cis-neoxanthin. The 9′-cis-neoxanthin substrate was prepared as described in supplemental methods. The enzyme assay was incubated for 15 min in the dark at 20° C. Water (700 μl) was then added, and the products extracted with ethyl acetate (3×1 ml). The organic solvent was removed at reduced pressure, the residue was dissolved in methanol (200 μl), and then 100 μl was injected onto a Phenomenex C18 reverse phase HPLC column, and a gradient of 5-10% methanol in acetonitrile/0.05% triethylamine was applied at 0.5 ml/min over 20 min, detecting at 440 nm. NCED inhibition assays contained 1-100 μM inhibitor; inhibition was calculated from the product formation after 15 min, compared to a control assay with no inhibitor present.
For the production of cell-free extracts of LeCCD1a and LeNCED1, cultures were grown to an OD of 0.6 at 37° C., then isopropyl β-D-1-thiogalactopyranoside (IPTG) was added to 0.2 mM and the cultures grown overnight at 20° C. The cells (200 ml cultures) were harvested by centrifugation (5000 rpm, 10 min) and the pellet re-suspended in 4 ml PBS, 0.1% Triton-X 100. Lysozyme was added to a final concentration of 25 μg ml^−1 and the solution incubated at room temperature for 15 min before sonication (3×30 s at 18Ω) on ice. The lysate was then centrifuged (13000 rpm, 15 min, 4° C.) and the supernatant used for the assay.
Specificity of inhibition in vitro for tomato genes LeNCED1 and LeCCD1a—In order to screen the inhibitors against enzymes which cleave carotenoids at the 9,10 position, we used the recombinant tomato LeCCD1a protein (44), because this type of enzyme can be studied using an in vitro colourimetric assay with β-apo-8′-carotenal as substrate (37). To establish the specificity of the inhibitors, they were also tested against the tomato LeNCED1 recombinant protein which cleaves 9-cis carotenoids at the 11,12 position (45). For this enzyme, the cleavage reaction was monitored by C18 reverse phase HPLC, using 9′-cis-neoxanthin as substrate.

LeCCD1a = assay: In vivo enzyme assay in β-carotene-producing E. coli expressing LeCCD1a; format: cell-based, Solanum lycopersicum; conditions: 100 μM inhibitor, 16 hours; FIG. 4
From the text: In vivo enzyme assays in E. coli—The genes of interest (supplemental Table S1) were cloned into the vector pET30c (Novagen) fused directly to the initial ATG codon with no tag, or into pGEX-4T such that the gene was fused to an N-terminal GST tag. All genes were full length except AtCCD7, which had the chloroplast signal sequence removed (supplemental methods). […] Therefore, this construct was used in subsequent assays. The plasmids were transferred to the E. coli expression strain BL21(DE3), harbouring pAC-BETA (38), and therefore producing β-carotene.
For each inhibitor assay, 2.5 ml LB media with the appropriate antibiotics (25 μg ml^−1 chloramphenicol and 50 μg ml^−1 kanamycin or 100 μg ml^−1 ampicillin) and 2.5 μM IPTG, was prepared. Inhibitors (0.1 M in 100% ethanol) were added to the media to a final concentration of 100 μM. The media was then inoculated with 0.25 ml of overnight culture (grown at 37° C. with the appropriate antibiotics) and incubated with shaking (200 rpm) at 28° C. for 16 hours. One ml of culture was harvested by microcentrifugation and resuspended thoroughly in 1 ml ethanol containing 0.2% Triton X-100. After vortexing, the extract was incubated at room temperature in the dark for 3 hours, again vortexed and then spun in a microcentrifuge for 5 min at 13000 rpm. The supernatant was removed and the O.D.453-O.D.550 was measured. The amount of β-carotene was calculated using a standard curve generated from a dilution series of β-carotene (Sigma) in ethanol with 0.2% Triton X-100; the absolute levels of β-carotene are shown in FIG. 8. The relative inhibition was calculated by the equation: (Ci−Cc)/(C1−Cc)×100, where Ci is the carotenoid level with inhibitor and CCD present, Cc is the level with CCD but without the inhibitor and C1 is the level in a strain where lacZ is expressed instead of the CCD, and no inhibitor is present. Thus the increase in β-carotene due to inhibition of the CCD […] was expressed relative to the maximum possible β-carotene content when CCD is absent (C1−Cc).
In vivo activity of inhibitors applied to E. coli strains expressing CCDs—Coloured E. coli strains that produce various carotenoids can be constructed by expression of enzymes for carotenoid synthesis (26). Upon co-expression of the appropriate CCD, the bacteria lose their colour due to cleavage of the carotenoids to colourless products (4,6,27). This technique was employed here to further explore the specificity of inhibitors, and to test their activity in vivo. The level of carotenoid in each CCD-expressing strain was compared to the level of the carotenoid in a control strain producing β-carotene but lacking any CCD gene. The difference in the carotenoid levels gave a measure of CCD activity, and inhibition of this activity was measured by addition of inhibitors to the growing medium.
The inhibitors were tested against four β-carotene-producing E. coli strains (supplemental Table S1). Three of the strains expressed highly divergent CCDs that cleave at the 9,10 position: AtCCD7 from Arabidopsis (21) and MmBCO2 from mouse (6) which both cleave at a single site (9,10 or 9′,10′ but not both), and the tomato enzyme LeCCD1a (44) which cleaves at both sites in the same substrate molecule (9,10/9′,10′ activity). The fourth strain expressed another mouse CCD, MmBCO1 (47), which cleaves centrally at 15,15′. […]

T1 sequence (O24023 17-605): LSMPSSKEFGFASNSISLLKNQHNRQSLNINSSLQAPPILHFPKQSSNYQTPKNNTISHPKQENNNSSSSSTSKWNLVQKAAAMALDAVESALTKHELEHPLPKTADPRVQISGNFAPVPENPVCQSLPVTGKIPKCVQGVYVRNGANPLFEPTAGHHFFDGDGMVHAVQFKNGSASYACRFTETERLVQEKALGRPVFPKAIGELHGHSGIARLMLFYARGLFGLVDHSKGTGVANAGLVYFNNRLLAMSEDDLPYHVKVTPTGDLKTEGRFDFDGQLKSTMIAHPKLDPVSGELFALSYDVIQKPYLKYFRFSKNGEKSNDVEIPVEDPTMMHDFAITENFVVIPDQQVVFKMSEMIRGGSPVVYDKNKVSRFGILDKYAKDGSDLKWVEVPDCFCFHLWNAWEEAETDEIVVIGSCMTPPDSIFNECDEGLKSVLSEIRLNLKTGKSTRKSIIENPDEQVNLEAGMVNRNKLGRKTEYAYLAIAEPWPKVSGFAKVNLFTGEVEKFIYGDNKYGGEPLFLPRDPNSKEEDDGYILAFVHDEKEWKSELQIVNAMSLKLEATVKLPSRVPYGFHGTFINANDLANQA

Compound	inhibition of LeNCED1 in vitro (in words) (LeNCED1)	relative inhibition of LeCCD1a in E. coli (in words) (LeCCD1a)	LeNCED1 (11,12) Inhibition @ 100 μM (%) (LeNCED1; 100 μM inhibitor, E. coli cell extract with recombinant CCD)
COc1ccc(C(=O)N(O)Cc2ccccc2)cc1 [Compound F1, N-benzyl-4-methoxybenzoyl hydroxamic acid]	little or no inhibition of LeNCED1; also recorded: no inhibition of LeNCED 1 was detected	good activity against LeCCD1a; also recorded: high inhibitory activity	
COc1ccc(C(=O)N(O)Cc2ccc(F)cc2)cc1 [Compound F2, N-(4-fluorobenzyl)-4-methoxybenzoyl hydroxamic acid]	little or no inhibition of LeNCED1	good activity against LeCCD1a; also recorded: high inhibitory activity	
COc1ccc(C(=O)N(O)Cc2ccccc2)cc1OC [Compound F3, N-benzyl-3,4-dimethoxybenzoyl hydroxamic acid]		virtually none	2
